Legend:
[1] = Inhibition of C-terminal His-tagged Caldalkalibacillus thermarum TA2.A1 NDH2 R347C mutant preincubated for 1 hr followed by NADH addition measured after 8 mins
[2] = tested on: Caldalkalibacillus thermarum TA2.A1; assay: Selectivity ratio of IC50 for wild type Caldalkalibacillus thermarum TA2.A1 NDH2 to IC50 for C-terminal His-tagged Caldalkalibacillus thermarum TA2.A1 NDH2 R382C mutant
[3] = Inhibition of wild type Caldalkalibacillus thermarum TA2.A1 NDH2 preincubated for 1 hr followed by NADH addition measured after 8 mins
[4] = tested on: Caldalkalibacillus thermarum TA2.A1; assay: Selectivity ratio of IC50 for wild type Caldalkalibacillus thermarum TA2.A1 NDH2 to IC50 for C-terminal His-tagged Caldalkalibacillus thermarum TA2.A1 NDH2 R347C mutant
[5] = Inhibition of C-terminal His-tagged Caldalkalibacillus thermarum TA2.A1 NDH2 R382C mutant preincubated for 1 hr followed by NADH addition measured after 8 mins

| IC50 [1] [µM] | Ratio IC50 [2] | IC50 [3] [µM] | Ratio IC50 [4] | IC50 [5] [µM] | Compound |
| --- | --- | --- | --- | --- | --- |
| 110 | 0.9 | 61.9 | 0.9 | 32.6 | CN(C)CCSSCCNC(=O)c1cccc2cc[nH]c12 |
| 5.9 | 9.3 | 42.2 | 9.3 | 3.2 | CN(C)CCSSCCNC(=O)CCC(=O)c1ccccn1 |
| 5.9 | 0.9 | 5.6 | 0.9 | 6.3 | CN(C)CCSSCCNC(=O)c1ccc(C#Cc2ccccc2)o1 |
| 60.8 | 0.8 | 38.1 | 0.8 | 33.5 | CN(C)CCSSCCNC(=O)c1c(N)cccc1Cl |

Second part, the molecule before the results:

| Compound | IC50 [1] [µM] | Ratio IC50 [2] | IC50 [3] [µM] | Ratio IC50 [4] | IC50 [5] [µM] |
| --- | --- | --- | --- | --- | --- |
| CN(C)CCSSCCn1cc(-c2ccc(N(C)C)cc2)nn1 | 56.8 | 3.6 | 147 | 3.6 | 24 |
| CN(C)CCSSCCCNC(=O)c1cccc(N(C)C)c1 | 14.5 | 2.8 | 36 | 2.8 | 11.5 |
| CN(C)CCSSCCNC(=O)[C@H]1CCCN(C(=O)c2ccc(-n3cccc3)cc2)C1 | 26.5 | 3 | 80.3 | 3 | 26.9 |
| NCCSSCCNC(=O)C1CCN(C(=O)c2ccc3ncsc3c2)CC1 | 9.9 | 3.7 | 52 | 3.7 | 18.6 |
| CN1CCN(CCCN2c3ccccc3Sc3ccc(C(F)(F)F)cc32)CC1 [TRIFLUOPERAZINE] | – | – | 50 | – | – |
| CN(C)CCSSCCNC(=O)C(CC(=O)c1ccccc1)c1cc2ccccc2n1C (stereo unspecified) | 12.9 | 1.3 | 12.8 | 1.3 | 7 |
| CN(C)CCSSCCNC(=O)[C@H]1CCCN(C(=O)c2cc3cccc(O)c3cc2O)C1 | 21.9 | 0.6 | 11.3 | 0.6 | 13 |
